Source: patent publication US20200008426A1, “ACTIVE COMPOUND COMBINATIONS” (BAYER AKTIENGESELLSCHAFT, priority 2017, published 2020)
Where two headings read alike, the source gives them in different places.

What was measured:
Alternaria solani = assay: In vivo preventive test on Alternaria (tomatoes)
Procedure: The plants are then placed in an incubation cabinet at approximately 20° C. and a relative atmospheric humidity of 100%.
The test is evaluated 3 days after the inoculation.

Phakopsora pachyrhizi = assay: In vivo preventive test on Phakopsora (soybeans); settings: Table C2, 7 days after inoculation
[1] = LogP by HPLC on reversed phase columns (EEC directive 79/831 Annex V.A8); settings: for LogP [a] / LogP [b]: LC-UV; for LogP [a]: acidic range, 0.1% formic acid in water and acetonitrile; for LogP [b]: neutral range, 0.001 molar ammonium acetate in water and acetonitrile
Procedure: Measurement of LogP values was performed according to EEC directive 79/831 Annex V.A8 by HPLC (High Performance Liquid Chromatography) on reversed phase columns with the following methods:
Lambda-max-values were determined using UV-spectra from 200 nm to 400 nm and the peak values of the chromatographic signals.

[2] = Alternaria solani, 72 h, read-out: Efficacy in % found

Compound: CC(C)C1CCC(Cc2ccc(Cl)cc2)C1(O)Cn1cncn1 (centres unmarked) [1.012 ipconazole, ipconazole]
- Efficacy in % found (Alternaria solani; Table A1, 2.5 ppm a.i., 3 days after inoculation): 28%
- Efficacy in % found (Alternaria solani; Table A1, 5 ppm a.i., 3 days after inoculation): 67%
- Efficacy in % found (Alternaria solani; Table A1, 10 ppm a.i., 3 days after inoculation): 88%

Compound: Cn1cc(C(=O)Nc2ccc(F)cc2-c2ccc(Cl)c(Cl)c2)c(C(F)F)n1 [2.002 bixafen, bixafen]
- Efficacy in % found (Phakopsora pachyrhizi; 2.5 ppm a.i.): 0%
- Efficacy in % found (Phakopsora pachyrhizi; 5 ppm a.i.): 0%
- Efficacy in % found (Phakopsora pachyrhizi; 10 ppm a.i.): 15%

Compound: O=C(NCCc1ncc(C(F)(F)F)cc1Cl)c1ccccc1C(F)(F)F [2.005 fluopyram, fluopyram]
- pest or weed control at 5 ppm (Alternaria solani; Alternaria solani, 72 h, Table A2, 5 ppm a.i., 3 days after inoculation, read-out: Efficacy in % found): 53%
- pest or weed control at 10 ppm (Alternaria solani; Alternaria solani, 72 h, Table A2, 10 ppm a.i., 3 days after inoculation, read-out: Efficacy in % found): 61%
- pest or weed control at 20 ppm (Alternaria solani; Alternaria solani, 72 h, Table A2, 20 ppm a.i., 3 days after inoculation, read-out: Efficacy in % found): 84%

Compound: Cc1nn(C)c(F)c1C(=O)Nc1ccccc1C(C)CC(C)C (centres unmarked) [2.017 penflufen, penflufen]
- Efficacy in % found (Alternaria solani; Table A2, 5 ppm a.i., 3 days after inoculation): 11%
- Efficacy in % found (Alternaria solani; Table A2, 10 ppm a.i., 3 days after inoculation): 26%
- Efficacy in % found (Alternaria solani; Table A2, 20 ppm a.i., 3 days after inoculation): 47%
- Efficacy in % found (Phakopsora pachyrhizi; 5 ppm a.i.): 8%
- Efficacy in % found (Phakopsora pachyrhizi; 10 ppm a.i.): 43%
- Efficacy in % found (Phakopsora pachyrhizi; 20 ppm a.i.): 83%

Compound: CON=C(C(=O)OC)c1ccccc1CON=C(C)c1cccc(C(F)(F)F)c1 [3.020 trifloxystrobin, trifloxystrobin]
- pest or weed control at 1 ppm (Alternaria solani; Alternaria solani, 72 h, Table A2, 1 ppm a.i., 3 days after inoculation, read-out: Efficacy in % found): 24%
- pest or weed control at 2 ppm (Alternaria solani; Alternaria solani, 72 h, Table A2, 2 ppm a.i., 3 days after inoculation, read-out: Efficacy in % found): 42%
- pest or weed control at 4 ppm (Alternaria solani; Alternaria solani, 72 h, Table A2, 4 ppm a.i., 3 days after inoculation, read-out: Efficacy in % found): 53%

Compound: N#Cc1c[nH]cc1-c1cccc2c1OC(F)(F)O2 [13.001 fludioxonil, fludioxonil]
- pest or weed control at 5 ppm (Alternaria solani; [2]): 77%
- pest or weed control at 10 ppm (Alternaria solani; [2]): 85%
- pest or weed control at 20 ppm (Alternaria solani; [2]): 95%

Compound: CCC(O)(Cn1cncn1)c1cnc(Oc2ccc(C(F)(F)F)cc2)cc1C(F)(F)F (centres unmarked) [I.76]
- LogP [a] ([1]; Table 1, formula (I)): 3.52^[a]

Compound: CC(O)(Cn1cncn1)c1ccc(Oc2ccc(F)cc2)nc1Oc1ccc(F)cc1 (centres unmarked) [I.77]
- LogP [a] ([1]; Table 1, formula (I)): 3.13^[a]

Compound: CC(O)(Cn1cncn1)c1cnc(Oc2ccc(C(F)(F)F)cc2)cc1Cl (centres unmarked) [I.78]
- LogP [a] ([1]; Table 1, formula (I)): 2.88^[a]

Compound: OC(Cn1cncn1)c1ccc(Oc2ccc(OC(F)(F)F)cc2)nc1C(F)(F)F (centres unmarked) [I.79]
- LogP [a] ([1]; Table 1, formula (I)): 2.89^[a]

Compound: OC(Cn1cncn1)(c1ccc(Oc2ccc(Cl)cc2)nc1C(F)(F)F)C1CC1 (centres unmarked) [I.80]
- LogP [a] ([1]; Table 1, formula (I)): 3.32^[a]

Compound: OC(Cn1cncn1)(c1ccc(Oc2ccc(Br)cc2)nc1C(F)(F)F)C1CC1 (centres unmarked) [I.81, 1-[6-(4-bromophenoxy)-2-(trifluoromethyl)pyridin-3-yl]-1-cyclopropyl-2-(1H-1,2,4-triazol-1-yl)ethanol]
- chromatographic logP ([1]; reversed-phase HPLC column): 3.7

Compound: CC(O)(Cn1cncn1)c1cnc(Oc2ccc(Br)cc2)cc1C(F)F (centres unmarked) [I.82]
- LogP [a] ([1]; Table 1, formula (I)): 2.78^[a]

Compound: OC(Cn1cncn1)(c1ccc(Oc2ccc(Br)cc2)nc1C(F)(F)F)C(F)(F)F (centres unmarked) [I.85]
- LogP [a] ([1]; Table 1, formula (I)): 3.48^[a]

Compound: OC(Cn1cncn1)(c1ccc(Oc2ccc(C(F)(F)F)cc2)nc1C(F)(F)F)C1CC1 (centres unmarked) [I.87]
- LogP [a] ([1]; Table 1, formula (I)): 3.57^[a]

Compound: OC(Cn1cncn1)c1cnc(Oc2ccc(C(F)(F)F)cc2)cc1Cl (centres unmarked) [I.88]
- LogP [a] ([1]; Table 1, formula (I)): 2.64^[a]

Compound: CC(O)(Cn1cncn1)c1ccc(Oc2ccc(Cl)cc2F)nc1C(F)(F)F (centres unmarked) [I.89]
- LogP [a] ([1]; Table 1, formula (I)): 3.15^[a]

Compound: OC(Cn1cncn1)c1ccc(Oc2ccc(Cl)cc2F)nc1C(F)(F)F (centres unmarked) [I.90]
- LogP [a] ([1]; Table 1, formula (I)): 2.88^[a]

Compound: OC(Cn1cncn1)(c1ccc(Oc2ccc(C(F)F)cc2)nc1C(F)(F)F)C1CC1 (centres unmarked) [I.93]
- LogP [a] ([1]; Table 1, formula (I)): 3.13^[a]

Compound: OC(Cn1cncn1)c1cnc(Oc2ccc(Cl)cc2)cc1C(F)F (centres unmarked) [I.94]
- LogP [a] ([1]; Table 1, formula (I)): 2.13^[a]

Compound: FC(F)(F)c1nc(Oc2ccc(S(F)(F)(F)(F)F)cc2)ccc1C1(C2CC2)CO1 (centres unmarked) [IX.09]
- LogP [a] ([1]; Table 5, formula (IX)): 5.22^[a]

Compound: CC(=O)c1cnc(Oc2ccc(S(F)(F)(F)(F)F)cc2)cc1C(F)(F)F [V.03]
- LogP [a] ([1]; Table 2, formula (V)): 4.32^[a]

Compound: CC(=O)c1cnc(Oc2ccc(C(F)F)cc2)cc1C(F)(F)F [V.04]
- LogP [a] ([1]; Table 2, formula (V)): 3.62^[a]

Compound: CC(=O)c1ccc(Oc2ccc(Cl)cc2)nc1C(F)F [V.05]
- LogP [a] ([1]; Table 2, formula (V)): 3.35^[a]

Compound: CC(=O)c1ccc(Oc2ccc(Cl)cc2)nc1OC(F)(F)F [V.06]
- LogP [a] ([1]; Table 2, formula (V)): 4.37^[a]

Compound: CC(=O)c1cnc(Oc2ccc(Cl)cc2F)cc1C(F)(F)F [V.07]
- LogP [a] ([1]; Table 2, formula (V)): 4.09^[a]

Compound: CC(=O)c1cnc(Oc2ccccc2)cc1Cl [V.08]
- LogP [a] ([1]; Table 2, formula (V)): 2.94
- LogP [b] ([1]; Table 2, formula (V)): 2.86

Compound: CC(=O)c1cnc(Oc2ccc(Cl)cc2)cc1Cl [V.09]
- LogP [a] ([1]; Table 2, formula (V)): 3.52
- LogP [b] ([1]; Table 2, formula (V)): 3.42

Compound: CC(=O)c1ccc(Oc2ccc(Cl)cc2)nc1Cl [V.10]
- LogP [a] ([1]; Table 2, formula (V)): 3.47
- LogP [b] ([1]; Table 2, formula (V)): 3.36

Compound: CC(=O)c1ccc(Oc2ccc(Cl)c(Cl)c2)nc1Cl [V.11]
- LogP [a] ([1]; Table 2, formula (V)): 4.10^[a]

Compound: CC(=O)c1ccc(Oc2ccc(F)cc2)nc1Cl [V.12]
- LogP [a] ([1]; Table 2, formula (V)): 3.11^[a]

Compound: CC(=O)c1ccc(Oc2ccc(C(F)F)cc2)nc1Cl [V.14]
- LogP [a] ([1]; Table 2, formula (V)): 3.15^[a]

Compound: CC(=O)c1cnc(Oc2ccc(OC(F)(F)F)cc2)cc1C(F)(F)F [V.15]
- LogP [a] ([1]; Table 2, formula (V)): 4.20^[a]

Compound: CC(=O)c1ccc(Oc2ccc(S(F)(F)(F)(F)F)cc2)nc1C(F)(F)F [V.16]
- LogP [a] ([1]; Table 2, formula (V)): 4.09^[a]

Compound: CC(=O)c1ccc(Oc2ccc(C(F)(F)F)cc2)nc1C(F)(F)F [V.17]
- LogP [a] ([1]; Table 2, formula (V)): 3.96^[a]

Compound: CC(=O)c1cnc(Oc2ccc(C(F)(F)F)cc2)cc1Cl [V.18]
- LogP [a] ([1]; Table 2, formula (V)): 3.87^[a]

Compound: CC(=O)c1cnc(Oc2ccc(Cl)cc2)cc1C(C)=O [V.19]
- LogP [a] ([1]; Table 2, formula (V)): 3.11^[a]

Compound: CC(=O)c1ccc(Oc2ccc(Br)cc2)nc1C(F)(F)F [V.20]
- LogP [a] ([1]; Table 2, formula (V)): 3.85^[a]

Compound: CC(=O)c1ccc(Oc2ccccc2)nc1Cl [V.21]
- LogP [a] ([1]; Table 2, formula (V)): 2.94
- LogP [b] ([1]; Table 2, formula (V)): 2.85

Compound: CC(=O)c1cnc(Oc2ccc(Cl)cc2)cc1Cl [V.22]
- LogP [a] ([1]; Table 2, formula (V)): 3.51^[a]

Compound: CC(=O)c1ccc(Oc2ccc(Cl)cc2)nc1F [V.24]
- LogP [a] ([1]; Table 2, formula (V)): 3.51^[a]

Compound: CC(=O)c1cnc(Oc2ccc(C(F)(F)F)cc2)cc1C(F)(F)F [V.25]
- LogP [a] ([1]; Table 2, formula (V)): 4.04^[a]

Compound: CC(=O)c1ccc(Oc2ccc(Cl)cc2)nc1Cl [V.26]
- LogP [a] ([1]; Table 2, formula (V)): 3.45^[a]

Compound: CC(=O)c1cnc(Oc2ccc(Br)cc2)cc1C(F)(F)F [V.27]
- LogP [a] ([1]; Table 2, formula (V)): 3.99^[a]

Compound: CC(=O)c1ccc(Oc2ccc(OC(F)(F)F)cc2)nc1Cl [V.28]
- LogP [a] ([1]; Table 2, formula (V)): 3.89^[a]

Compound: COc1ccc(Oc2ccc(C(C)=O)c(Cl)n2)c(Cl)c1 [V.29]
- LogP [a] ([1]; Table 2, formula (V)): 3.44^[a]

Compound: CC(=O)c1ccc(Oc2ccc(S(F)(F)(F)(F)F)cc2)nc1Cl [V.30]
- LogP [a] ([1]; Table 2, formula (V)): 3.99^[a]

Compound: CC(=O)c1ccc(Oc2c(F)cc(Cl)cc2F)nc1C(F)(F)F [V.31]
- LogP [a] ([1]; Table 2, formula (V)): 4.06^[a]

Compound: CC(=O)c1ccc(Oc2ccc(C(F)F)cc2)nc1C(F)(F)F [V.32]
- LogP [a] ([1]; Table 2, formula (V)): 3.26^[a]

Compound: O=C(c1ccc(Oc2ccc(C(F)(F)F)cc2)nc1C(F)(F)F)C1CC1 [V.39]
- LogP [a] ([1]; Table 2, formula (V)): 4.37^[a]

Compound: O=Cc1ccc(Oc2ccc(C(=O)C3CC3)c(C(F)(F)F)n2)cc1 [V.42]
- LogP [a] ([1]; Table 2, formula (V)): 3.21^[a]

Compound: O=C(c1ccc(Oc2ccc(S(F)(F)(F)(F)F)cc2)nc1C(F)(F)F)C1CC1 [V.43]
- LogP [a] ([1]; Table 2, formula (V)): 4.67^[a]
